Laboratory results from patent US20140323418A1, “SELECTIVE KINASE INHIBITORS” (PORTOLA PHARMACEUTICALS, INC., priority 2011, published 2014).

These compounds were tested against T1, full length active recombinant SYK enzyme (Homo sapiens, UniProt P43405) (assay: Inhibition of Syk tyrosine phosphorylation activity (LANCE TR-FRET kinase assay)). Settings: 1 nM SYK, 550 nM substrate, 100 μM ATP, 1 hour room temperature.
T1 construct: full length active recombinant SYK enzyme (Millipore, Calif.); purchased Millipore
Assay type: biochemical

SMILES | IC50 [nM]
NC(=O)c1cnc(NC2CCCc3cccnc32)nc1Nc1cccc(-n2nccn2)c1 (racemic) [Example 18, 4-(3-(2H-1,2,3-triazol-2-yl)phenylamino)-2-(5,6,7,8-tetrahydroquinolin-8-ylamino)pyrimidine-5-carboxamide] | 100 to 1000
CCC(Nc1ncc(C(N)=O)c(Nc2cccc(C)c2)n1)C1(N)CC1 (racemic) [Example 125, (±)-2-(1-(1-aminocyclopropyl)propylamino)-4-(m-tolylamino)pyrimidine-5-carboxamide] | 1 to 10
NC(=O)c1cnc(N[C@@H]2CCCC(=O)[C@@H]2N)nc1Nc1cccc(-n2nccn2)c1 (racemic) [Example 165] | 100 to 1000
NC(=O)c1cnc(N[C@@H]2CCC[C@H](F)[C@@H]2N)nc1Nc1cccc(-n2nccn2)c1 (racemic) [Example 174] | 10 to 100
NC(=O)c1cnc(N[C@@H]2[C@H](F)CCC[C@@H]2N)nc1Nc1cccc(-n2nccn2)c1 (racemic) [Example 175, (±)-4-(3-(2H-1,2,3-triazol-1-yl)phenylamino)-2-((1S,2S,6R)-2-amino-6-fluorocyclohexylamino)pyrimidine-5-carboxamide] | 10 to 100
Cc1cccc(Nc2nc(N[C@@H]3CC[C@@H](C(=O)O)C[C@@H]3N)ncc2C(N)=O)c1 (racemic) [Example 187, (1R,3S,4R)-3-amino-4-(5-carbamoyl-4-(m-tolylamino)pyrimidin-2-ylamino)cyclohexanecarboxylic acid] | 1 to 10
CCOC(=O)[C@@H]1CC[C@@H](Nc2ncc(C(N)=O)c(Nc3cccc(C)c3)n2)[C@@H](N)C1 (racemic) [Example 188, (1R,3S,4R)-ethyl 3-amino-4-(5-carbamoyl-4-(m-tolylamino)pyrimidin-2-ylamino)cyclohexanecarboxylate] | 10 to 100
CNC(=O)[C@@H]1CC[C@@H](Nc2ncc(C(N)=O)c(Nc3cccc(C)c3)n2)[C@@H](N)C1 (racemic) [Example 189, 2-((1R,2S,4R)-2-amino-4-(methylcarbamoyl)cyclohexylamino)-4-(m-tolylamino)pyrimidine-5-carboxamide] | 1 to 10
Cc1cccc(Nc2nc(N[C@@H]3CC[C@@H](C(=O)N(C)C)C[C@@H]3N)ncc2C(N)=O)c1 (racemic) [Example 190, 2-((1R,2S,4R)-2-amino-4-(dimethylcarbamoyl)cyclohexylamino)-4-(m-tolylamino)pyrimidine-5-carboxamide] | 1 to 10
Cc1cccc(Nc2nc(N[C@@H]3CC[C@@H](C(=O)N4CC(F)(F)C4)C[C@@H]3N)ncc2C(N)=O)c1 (racemic) [Example 192, 2-((1R,2S,4R)-2-amino-4-(3,3-difluoroazetidine-1-carbonyl)cyclohexylamino)-4-(m-tolylamino)pyrimidine-5-carboxamide] | 10 to 100
Cc1cccc(Nc2nc(N[C@@H]3CC[C@@H](C(=O)N4CCCC4)C[C@@H]3N)ncc2C(N)=O)c1 (racemic) [Example 193, 2-((1R,2S,4R)-2-amino-4-(pyrrolidine-1-carbonyl)cyclohexylamino)-4-(m-tolylamino)pyrimidine-5-carboxamide] | 10 to 100
NC(=O)c1cnc(N[C@@H]2CCC[C@@H](F)[C@@H]2N)nc1Nc1cccc(-n2nccn2)c1 (racemic) [Example 242, (±)-4-(3-(2H-1,2,3-triazol-2-yl)phenylamino)-2-((1R,2R,3R)-2-amino-3-fluorocyclohexylamino)pyrimidine-5-carboxamide] | 10 to 100
Cc1cccc(Nc2nc(N[C@@H]3C[C@@H](C(N)=O)CC[C@@H]3N)ncc2C(N)=O)c1 (racemic) [Example 243, 2-((1R,2S,5S)-2-amino-5-carbamoylcyclohexylamino)-4-(m-tolylamino)pyrimidine-5-carboxamide] | 100 to 1000
NC(=O)c1cnc(N[C@@H]2CCCC[C@@H]2CO)nc1Nc1cccc(-n2nccn2)c1 (racemic) [Example 256, 4-((3-(2H-1,2,3-triazol-2-yl)phenyl)amino)-2-(((1R,2S)-2-(hydroxymethyl)cyclohexyl)amino)pyrimidine-5-carboxamide] | 100 to 1000
Cc1cccc(Nc2ncc(C(N)=O)c(NC3CCC(N)CC3)n2)c1 (stereo in doubt) [Example 246, 4-(trans-4-aminocyclohexylamino)-2-(m-tolylamino)pyrimidine-5-carboxamide] | 10 to 100
COc1cccc(Nc2ncc(C(N)=O)c(NC3CCC(N)CC3)n2)c1 (stereo in doubt) [Example 247, 4-(trans-4-aminocyclohexylamino)-2-(3-methoxyphenylamino)pyrimidine-5-carboxamide] | 10 to 100
COc1ccc(Nc2ncc(C(N)=O)c(NC3CCC(N)CC3)n2)cn1 (stereo in doubt) [Example 248, 4-(trans-4-aminocyclohexylamino)-2-(6-methoxypyridin-3-ylamino)pyrimidine-5-carboxamide] | 100 to 1000
CN(C)c1ncc(C(N)=O)c(Nc2cccc(-n3nccn3)c2)n1 [Example 3, 4-(3-(2H-1,2,3-triazol-2-yl)phenylamino)-2-(dimethylamino)pyrimidine-5-carboxamide] | 100 to 1000

SMILES | IC50 [nM]
CCO[C@@H]1CCCC[C@H]1Nc1ncc(C(N)=O)c(Nc2cccc(-n3nccn3)c2)n1 [Example 6] | 100 to 1000
CCO[C@H]1CCCC[C@H]1Nc1ncc(C(N)=O)c(Nc2cccc(-n3nccn3)c2)n1 [Example 7, 4-(3-(2H-1,2,3-triazol-2-yl)phenylamino)-2-((1R,2S)-2-ethoxycyclohexylamino)pyrimidine-5-carboxamide] | 100 to 1000
[N-]=[N+]=N[C@H]1CCCC[C@H]1Nc1ncc(C(N)=O)c(Nc2cccc(-n3nccn3)c2)n1 [Example 8, 4-(3-(2H-1,2,3-triazol-2-yl)phenylamino)-2-((1R,2S)-2-azidocyclohexylamino)pyrimidine-5-carboxamide] | 100 to 1000
NC(=O)c1cnc(N[C@@H]2CCCC[C@@H]2n2ccnn2)nc1Nc1cccc(-n2nccn2)c1 [Example 9, 2-((1R,2S)-2-(1H-1,2,3-triazol-1-yl)cyclohexylamino)-4-(3-(2H-1,2,3-triazol-2-yl)phenylamino)pyrimidine-5-carboxamide] | 100 to 1000
NC(=O)c1cnc(N[C@@H]2CCCC[C@@H]2NC=O)nc1Nc1cccc(-n2nccn2)c1 [Example 10, 4-(3-(2H-1,2,3-triazol-2-yl)phenylamino)-2-((1R,2S)-2-formamidocyclohexylamino)pyrimidine-5-carboxamide] | 100 to 1000
N#CCN[C@H]1CCCC[C@H]1Nc1ncc(C(N)=O)c(Nc2cccc(-n3nccn3)c2)n1 [Example 11, 4-(3-(2H-1,2,3-triazol-2-yl)phenylamino)-2-((1R,2S)-2-(cyanomethylamino)cyclohexylamino)pyrimidine-5-carboxamide] | 100 to 1000
NC(=O)c1cnc(N[C@@H]2CCCC[C@@H]2NCCO)nc1Nc1cccc(-n2nccn2)c1 [Example 12, 4-(3-(2H-1,2,3-triazol-2-yl)phenylamino)-2-((1R,2S)-2-(2-hydroxyethylamino)cyclohexylamino)pyrimidine-5-carboxamide] | 100 to 1000
NC(=O)c1cnc(N[C@@H]2CCCC(F)(F)[C@@H]2N)nc1Nc1cccc(-n2nccn2)c1 [Example 13] | 100 to 1000
CC(NC1CCCC[C@H]1Nc1ncc(C(N)=O)c(Nc2cccc(-n3nccn3)c2)n1)N[C@H]1CCCC[C@H]1Nc1ncc(C(N)=O)c(Nc2cccc(-n3nccn3)c2)n1 (stereo partly drawn) [Example 15, 2,2′-(1R,1′R,2S,2′S)-2,2′-(ethane-1,1-diylbis(azanediyl))bis(cyclohexane-2,1-diyl)bis(azanediyl)bis(4-(3-(2H-1,2,3-triazol-2-yl)phenylamino)pyrimidine-5-carboxamide)] | 100 to 1000
NC(=O)c1cnc(N[C@H]2CCCC(F)(F)[C@H]2N)nc1Nc1cccc(-n2nccn2)c1 [Example 19] | 100 to 1000
NC(=O)c1cnc(N[C@@H]2CCCC[C@@H]2N)nc1Nc1ccc(Br)c(-n2nccn2)c1 [Example 20, 2-((1R,2S)-2-aminocyclohexylamino)-4-(4-bromo-3-(2H-1,2,3-triazol-2-yl)phenylamino)pyrimidine-5-carboxamide] | 10 to 100
NC(=O)c1cnc(N[C@@H]2CCCC[C@@H]2N)nc1Nc1cc(Br)cc(-n2nccn2)c1 [Example 21, 2-((1R,2S)-2-aminocyclohexylamino)-4-(3-bromo-5-(2H-1,2,3-triazol-2-yl)phenylamino)pyrimidine-5-carboxamide] | 10 to 100
NC(=O)c1cnc(N[C@@H]2CCCC[C@@H]2N)nc1Nc1ccc(Cl)c(-n2nccn2)c1 [Example 22, 2-((1R,2S)-2-aminocyclohexylamino)-4-(4-chloro-3-(2H-1,2,3-triazol-2-yl)phenylamino)pyrimidine-5-carboxamide] | 1 to 10
NC(=O)c1cnc(N[C@@H]2CCCC[C@@H]2N)nc1Nc1cc(-n2nccn2)c(Cl)cc1Cl [Example 24, 2-((1R,2S)-2-aminocyclohexylamino)-4-(2,4-dichloro-5-(2H-1,2,3-triazol-2-yl)phenylamino)pyrimidine-5-carboxamide] | 10 to 100
NC(=O)c1cnc(N[C@@H]2CCCC(F)(F)[C@@H]2N)nc1Nc1cccc(-c2ncccn2)c1 [Example 26, 2-(((1R,2R)-2-amino-3,3-difluorocyclohexyl)amino)-4-((3-(pyrimidin-2-yl)phenyl)amino)pyrimidine-5-carboxamide] | 100 to 1000
NC(=O)c1cnc(N[C@@H]2CCCC(F)(F)[C@@H]2N)nc1Nc1ccccc1 [Example 27, 2-(((1R,2R)-2-amino-3,3-difluorocyclohexyl)amino)-4-(phenylamino)pyrimidine-5-carboxamide] | 100 to 1000
NC(=O)c1cnc(N[C@@H]2CCCC(F)(F)[C@@H]2N)nc1Nc1cccc(Cl)c1 [Example 28, 2-(((1R,2R)-2-amino-3,3-difluorocyclohexyl)amino)-4-((3-chlorophenyl)amino)pyrimidine-5-carboxamide] | 10 to 100
